Marks after values point to notes of the source that are not given here.
Molecular target: T1, RhlR (Pseudomonas aeruginosa, UniProt P54292)
T1 construct: expressed in transfected cells; host or cells: E. coli sdiA variant co-transformed with pJN105R and pSC11 (RhlA::lacZ)
Experiment: cell-based
Settings: footnotes not given; for activity at 100 µM: read-out: Relative RhlR activity Agonism, Table 2, matches the 100 column of Table 3; for remaining activity at 100 µM: read-out: Relative RhlR activity Antagonism, Table 2; for remaining activity at 100 µM / Relative RhlR activity Antagonism: 100 μM per Table 3, lower = stronger antagonism; for Relative RhlR activity Antagonism: Table 2
Method: Escherichia coli (E. coli) DH5a includes LuxR homolog SdiA detecting endogenous AHL synthesized by other microbial species, particularly, BHL.
For RhlR reporter strain analysis, the present invention used pJN105R (RhlR expression plasmid), anspSC11 (RhlA::lacZ fusion plasmid) and an sdiA variant co-transformed with the two plasmids. 1% of an overnight-cultured reporter strain (OD 595 nm=1.0) supplemented with 10 μg/mL gentamicin and 50 μg/mL ampicillin was cultured in a Luria-Bertani (LB) medium (Difco, Detroit, Mich., USA) with a positive control or a compound (0-1000 μM) and BHL (0-10 μM) (Sigma-Aldrich) at 37° C. for 2 hours. 0.4% arabinose (Sigma-Aldrich) was reacted with the resulting product at 37° C. for 1.5 hours. β-galactosidase activity was evaluated using a Tropix plus kit (Applied Biosystems, CA, USA), and OD 595 nm and luminescence were measured using a VICTOR x5 multimode plate reader (PerkinElmer, Waltham, Mass., USA). Relative RhlR activity was quantified by measuring luminescence at OD 595 nm. In addition, for LasR reporter strain analysis, the present invention used pJN105L (LasR expression plasmid) and pSC11 (lasI::lacZ fusion plasmid), E. coli DH5a co-transformed with the two plasmids, and OdDHL (Sigma-Aldrich).

T1 sequence (P54292 whole entry): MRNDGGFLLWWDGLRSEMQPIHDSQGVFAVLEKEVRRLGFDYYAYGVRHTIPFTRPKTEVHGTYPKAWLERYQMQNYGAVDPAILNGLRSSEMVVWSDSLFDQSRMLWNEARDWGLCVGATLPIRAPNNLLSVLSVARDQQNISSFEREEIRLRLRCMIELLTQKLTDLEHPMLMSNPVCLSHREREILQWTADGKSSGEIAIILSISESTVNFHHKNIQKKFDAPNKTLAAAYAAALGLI

| Compound | activity at 100 µM [%] | remaining activity at 100 µM [%] | Relative RhlR activity Antagonism |
| --- | --- | --- | --- |
| CCCC(O)CC(=O)CCc1ccc(O)c(F)c1 (centres unmarked) [Compound 12m, 1-(3-Fluoro-4-hydroxyphenyl)-5-hydroxyoctan-3-one] | 1 | 73 |  |
| CCCC(O)CC(=O)CCc1cccc(O)c1 (centres unmarked) [Compound 12e, 5-Hydroxy-1-(3-hydroxyphenyl)octan-3-one] | 2 | 81 |  |
| CCCC(O)CC(=O)CCc1ccc(Cl)cc1 (centres unmarked) [Compound 12h, 1-(4-Chlorophenyl)-5-hydroxyoctan-3-one] | 2 | 69 |  |
| CCCC(O)CC(=O)/C=C/c1ccc(O)c(F)c1 (centres unmarked) [Compound 11m, (E)-1-(3-Fluoro-4-hydroxyphenyl)-5-hydroxyoct-1-en-3-one] | 2 | 60 |  |
| CCCCCC(O)/C=C/c1ccc(O)c(OC)c1 (centres unmarked) [Compound 15b, (E)-4-(3-Hydroxyoct-1-en-1-yl)-2-methoxyphenol] | 2 | 41 | 41** % |
| CCCCCC(=O)/C=C/c1ccc(O)c(OC)c1 [Compound 13b, (E)-1-(4-Hydroxy-3-methoxyphenyl)oct-1-en-3-one] | 2 | 41 | 41** % |
| CCCC(O)CC(=O)/C=C/c1ccc(F)cc1 (centres unmarked) [Compound 11g, (E)-1-(4-Fluorophenyl)-5-hydroxyoct-1-en-3-one] | 1 | 33 | 33** % |
| CCCC(O)CC(=O)CCc1ccc(O)c(OC)c1 (centres unmarked) [Compound 2, 5-Hydroxy-1-(4-hydroxy-3-methoxyphenyl)octan-3-one] | 3 | 54 | 54** % |
| CCCC(O)CC(=O)CCc1cc(F)cc(OC)c1 (centres unmarked) [Compound 12r, 1-(3-Fluoro-5-methoxyphenyl)-5-hydroxyoctan-3-one] | 3 | 85 |  |
| CCCC(O)CC(=O)/C=C/c1ccccc1C (centres unmarked) [Compound 11i, (E)-5-Hydroxy-1-(o-tolyl)oct-1-en-3-one] | 2 | 65 | 65** % |
| CCCCCC(O)/C=C\c1ccc(O)c(OC)c1 (centres unmarked) [Compound 25, (Z)-4-(3-Hydroxyoct-1-en-1-yl)-2-methoxyphenol] | 3 | 79 | 79** % |
| CCCC(O)CC(=O)CCc1ccc(F)c(OC)c1 (centres unmarked) [Compound 12q, 1-(4-Fluoro-3-methoxyphenyl)-5-hydroxyoctan-3-one] | 1 | 79 |  |
| CCCCCC(=O)CCc1ccc(O)c(OC)c1 [Compound 14b, 1-(4-Hydroxy-3-methoxyphenyl)octan-3-one] | 2 | 49 | 49** % |
| CCCCCC(O)C#Cc1ccc(F)c(F)c1 (racemic) [Compound 35a, 1-(3,4-Difluorophenyl)oct-1-yn-3-ol] | 3 | 74 |  |
| CCCC(O)CC(=O)/C=C/c1ccc(C)c(C)c1 (centres unmarked) [Compound 11p, (E)-1-(3,4-Dimethylphenyl)-5-hydroxyoct-1-en-3-one] | 2 | 72 | 72** % |
| CCCC[C@H](O)C#Cc1ccc(F)c(F)c1 [Compound 34c, (S)-1-(3,4-Difluorophenyl)hept-1-yn-3-ol] | 2 | 64 |  |
| CCCC(O)CC(=O)/C=C/c1ccc(F)c(OC)c1 (centres unmarked) [Compound 11q, (E)-1-(4-Fluoro-3-methoxyphenyl)-5-hydroxyoct-1-en-3-one] | 1 | 43 | 43** % |
| CCCC(O)CC(=O)CCc1ccccc1 (centres unmarked) [Compound 12b, 5-Hydroxy-1-phenyloctan-3-one] | 4 | 88 |  |
| CCCCCCCC(O)CC(=O)CCc1ccc(O)c(OC)c1 (centres unmarked) [Compound 6, 5-Hydroxy-1-(4-hydroxy-3-methoxyphenyl)dodecan-3-one] | 2 | 90 |  |
| CCCCCCC(O)CC(=O)CCc1ccc(O)c(OC)c1 (centres unmarked) [Compound 5, 5-Hydroxy-1-(4-hydroxy-3-methoxyphenyl)undecan-3-one] | 3 | 83 |  |
| CCCC(O)CC(=O)/C=C/c1ccc(N(C)C)cc1 (centres unmarked) [Compound 11j, (E)-1-(4-(Dimethylamino)phenyl)-5-hydroxyoct-1-en-3-one] | 2 | 53 | 53** % |

| Compound | activity at 100 µM [%] | remaining activity at 100 µM [%] | Relative RhlR activity Antagonism |
| --- | --- | --- | --- |
| CCCC(O)CC(=O)CCc1ccc(O)c(OCC)c1 (centres unmarked) [Compound 12n, 1-(3-Ethoxy-4-hydroxyphenyl)-5-hydroxyoctan-3-one] | 1 | 98 |  |
| CCCC(O)CC(=O)CCc1ccc(O)cc1 (centres unmarked) [Compound 12d, 5-Hydroxy-1-(4-hydroxyphenyl)octan-3-one] | 3 | 64 |  |
| CCCC(O)CC(=O)/C=C/c1ccc(Cl)cc1 (centres unmarked) [Compound 11h, (E)-1-(4-Chlorophenyl)-5-hydroxyoct-1-en-3-one] | 1 | 64 | 64** % |
| CCCC(O)CC(=O)CCc1ccc(O)c(O)c1 (centres unmarked) [Compound 12k, 1-(3,4-Dihydroxyphenyl)-5-hydroxyoctan-3-one] | 2 | 47 |  |
| CCCC(O)CC(=O)CCc1ccc(OC)cc1 (centres unmarked) [Compound 12f, 5-Hydroxy-1-(4-methoxyphenyl)octan-3-one] | 2 | 71 |  |
| CCCC(O)CC(=O)/C=C/c1ccc(OC)c(OC)c1 (centres unmarked) [Compound 11l, (E)-1-(3,4-Dimethoxyphenyl)-5-hydroxyoct-1-en-3-one] | 1 | 69 |  |
| CCCC(O)CC(=O)/C=C/c1cccc(O)c1 (centres unmarked) [Compound 11e, (E)-5-Hydroxy-1-(3-hydroxyphenyl)oct-1-en-3-one] | 2 | 78 | 78** % |
| CCCCCC(O)CCc1ccc(O)c(OC)c1 (centres unmarked) [Compound 27] | 2 | 45 | 45** % |
| CCCCC(O)C#Cc1ccc(F)c(F)c1 (racemic) [Compound 34a, 1-(3,4-Difluorophenyl)hept-1-yn-3-ol] | 4 | 71 |  |
| CCCCCC(O)/C=C/c1ccc(F)c(F)c1 (centres unmarked) [Compound 15a, (E)-1-(3,4-Difluorophenyl)oct-1-en-3-ol] | 5 | 55 |  |
| CCCCCC(=O)CCc1ccc(F)c(F)c1 [Compound 14a, 1-(3,4-Difluorophenyl)octan-3-one] | 4 | 55 |  |
| CCCC(O)CC(=O)CCc1ccc(C)c(C)c1 (centres unmarked) [Compound 12p, 1-(3,4-Dimethylphenyl)-5-hydroxyoctan-3-one] | 3 | 82 |  |
| CCCC(O)CC(=O)CCc1ccc(OC)c(OC)c1 (centres unmarked) [Compound 12l, 1-(3,4-Dimethoxyphenyl)-5-hydroxyoctan-3-one] | 1 | 94 |  |
| CCCC[C@@H](O)C#Cc1ccc(F)c(F)c1 [Compound 34b, (R)-1-(3,4-Difluorophenyl)hept-1-yn-3-ol] | 3 | 67 |  |
| CCCC(O)CC(=O)CCc1ccc(C)cc1 (centres unmarked) [Compound 12i, 5-Hydroxy-1-(p-tolyl)octan-3-one] | 1 | 76 |  |
| CCCCC[C@@H](O)C#Cc1ccc(F)c(F)c1 [Compound 35b, (R)-1-(3,4-Difluorophenyl)oct-1-yn-3-ol] | 3 | 72 |  |
| CCCC(O)CC(=O)/C=C/c1ccccc1 (centres unmarked) [Compound 11b, (E)-5-Hydroxy-1-phenyloct-1-en-3-one] | 4 | 93 | 93* % |
| CCCC(O)CC(=O)CCc1ccc(N(C)C)cc1 (centres unmarked) [Compound 12j, 1-(4-(Dimethylamino)phenyl)-5-hydroxyoctan-3-one] | 1 | 74 |  |
| CCCCCC(O)CCc1ccc(F)c(F)c1 (centres unmarked) [Compound 16a, 1-(3,4-Difluorophenyl)octan-3-ol] | 5 | 61 |  |
| CCCC(O)CC(=O)CCc1cccc(OC)c1 (centres unmarked) [Compound 12c, 5-Hydroxy-1-(3-methoxyphenyl)octan-3-one] | 2 | 90 |  |
| CCCC(O)CC(=O)CCc1ccc(F)c(F)c1 (centres unmarked) [Compound 12o, 1-(3,4-Difluorophenyl)-5-hydroxyoctan-3-one] | 1 | 49 |  |

Reference: patent publication US20220289657A1, “COMPOSITION FOR PREVENTING OR TREATING BACTERIAL INFECTIOUS DISEASE COMPRISING 4-GINGEROL DERIVATIVE COMPOUND AS ACTIVE INGREDIENT” (KOREA UNIVERSITY RESEARCH AND BUSINESS FOUNDATION, SEJONG …, priority 2019, published 2022)
